Experimental data reported in US20250304585A1, “SULFAMATE BASED COVALENT LIGAND-DIRECTED RELEASE (COLDR) COMPOUNDS” (priority 2022, published 2025).
Several values for one entry are separate records, joined by “and”; a condition that tells them apart may be missing. Equal entries are not always repeated. Where two headings read alike, the source gives them in different places.

What was measured:
Mino cells [1] = assay: Proteomic reactivity of model alkyne probes; assay type: cell-based; details: compared with 2b
BTK [2] = biological target: T1, BTK (Homo sapiens (Human), UniProt Q06187); assay: In vitro kinase activity assay; assay type: biochemical
BTK [3] = biological target: T1, BTK; assay: BTK activity (autophosphorylation) in Mino cells; assay type: cell-based; details: anti-IgM activation, read-out: IC50 of BTK autophosphorylation inhibition
Excerpt: The cell pellets were subjected to immunoblotting and performed Western blots for p-BTK, BTK and β-actin.
Cell pellets were washed with ice-cold PBS and lysed using RIPA-buffer (Sigma, R0278). […] EZ-ECL Kit (Biological Industries, 20-500-1000) was used to detect HRP-activity.

[4] = GSH reactivity (consumption) assay; assay type: physicochemical; details: for covalent bond formation with GSH: assay conditions or up to 37° C. for 24 h; for GSH reactivity relative to chloroacetamide (1a): model compounds
BTK kinase domain = BTK kinase domain (Homo sapiens (Human), UniProt Q06187); assay: In-vitro labeling of recombinant BTK, intact protein LC/MS; assay type: binding; details: 2 μM BTK, 2 μM compound
BTK C481S mutant = BTK C481S mutant (Homo sapiens (Human), UniProt Q06187, C481S); assay: In vitro kinase activity assay with BTK C481S mutant; assay type: biochemical; details: for C481S/BTK: ratio of off-target/BTK IC50
EGFR = EGFR (Homo sapiens (Human), UniProt P00533); assay: In vitro kinase activity assay with EGFR; assay type: biochemical; details: for EGFR/BTK: ratio of off-target/BTK IC50
Mino cells [5] = assay: Competitive pull-down proteomics; assay type: cell-based; details: 1 μM, fold-enrichment>4 and p-value<0.05
[6] = system: TCL1 adoptive transfer mouse model for CLL; assay: TCL1 adoptive transfer mouse model for CLL; assay type: in vivo; details: after two weeks of treatment
BTK [7] = biological target: BTK (Mus musculus (Mouse), UniProt P35991); assay: BTK engagement in treated mice spleens; assay type: in vivo
Method: Lysates were diluted to 2 mg/ml, […] per sample, and incubated for 1 h in room temperature with […] probe 4 to label BTK. Lysates were then clicked to TAMRA-azide and imaged using ChemiDoc MP (546 nm) as described in the In-gel fluorescence protocol.

[8] = Metabolic stability with human liver microsomes; details: five-minute incubation
[9] = 0.5 nM BTK, 5 μM ATP, read-out: BTK (IC50 μM)
[10] = BTK C481S mutant, read-out: C481S (IC50 μM)

Sequence of BTK C481S mutant (Q06187 whole entry C481S, looked up): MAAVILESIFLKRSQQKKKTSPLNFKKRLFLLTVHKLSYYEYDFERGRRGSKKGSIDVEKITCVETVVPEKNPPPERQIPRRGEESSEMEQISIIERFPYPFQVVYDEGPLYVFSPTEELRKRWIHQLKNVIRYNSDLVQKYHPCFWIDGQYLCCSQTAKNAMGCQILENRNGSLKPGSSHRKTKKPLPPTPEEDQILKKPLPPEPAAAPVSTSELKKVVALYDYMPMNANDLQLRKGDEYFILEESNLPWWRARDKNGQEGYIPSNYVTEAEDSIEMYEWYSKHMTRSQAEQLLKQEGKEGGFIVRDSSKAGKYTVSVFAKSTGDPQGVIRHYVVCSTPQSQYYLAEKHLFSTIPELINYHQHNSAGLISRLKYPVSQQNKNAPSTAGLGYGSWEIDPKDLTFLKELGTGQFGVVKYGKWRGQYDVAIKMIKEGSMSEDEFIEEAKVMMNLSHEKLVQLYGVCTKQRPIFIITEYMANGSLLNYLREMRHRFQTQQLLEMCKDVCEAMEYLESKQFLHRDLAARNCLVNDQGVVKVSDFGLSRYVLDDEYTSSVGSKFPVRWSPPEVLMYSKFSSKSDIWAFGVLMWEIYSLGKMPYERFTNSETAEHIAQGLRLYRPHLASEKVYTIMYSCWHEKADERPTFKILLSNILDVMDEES
T1 sequence (Q06187 whole entry, looked up): as the sequence (Q06187 whole entry C481S, looked up) above, with S481C counted along it
Sequence of EGFR (P00533 25-1210): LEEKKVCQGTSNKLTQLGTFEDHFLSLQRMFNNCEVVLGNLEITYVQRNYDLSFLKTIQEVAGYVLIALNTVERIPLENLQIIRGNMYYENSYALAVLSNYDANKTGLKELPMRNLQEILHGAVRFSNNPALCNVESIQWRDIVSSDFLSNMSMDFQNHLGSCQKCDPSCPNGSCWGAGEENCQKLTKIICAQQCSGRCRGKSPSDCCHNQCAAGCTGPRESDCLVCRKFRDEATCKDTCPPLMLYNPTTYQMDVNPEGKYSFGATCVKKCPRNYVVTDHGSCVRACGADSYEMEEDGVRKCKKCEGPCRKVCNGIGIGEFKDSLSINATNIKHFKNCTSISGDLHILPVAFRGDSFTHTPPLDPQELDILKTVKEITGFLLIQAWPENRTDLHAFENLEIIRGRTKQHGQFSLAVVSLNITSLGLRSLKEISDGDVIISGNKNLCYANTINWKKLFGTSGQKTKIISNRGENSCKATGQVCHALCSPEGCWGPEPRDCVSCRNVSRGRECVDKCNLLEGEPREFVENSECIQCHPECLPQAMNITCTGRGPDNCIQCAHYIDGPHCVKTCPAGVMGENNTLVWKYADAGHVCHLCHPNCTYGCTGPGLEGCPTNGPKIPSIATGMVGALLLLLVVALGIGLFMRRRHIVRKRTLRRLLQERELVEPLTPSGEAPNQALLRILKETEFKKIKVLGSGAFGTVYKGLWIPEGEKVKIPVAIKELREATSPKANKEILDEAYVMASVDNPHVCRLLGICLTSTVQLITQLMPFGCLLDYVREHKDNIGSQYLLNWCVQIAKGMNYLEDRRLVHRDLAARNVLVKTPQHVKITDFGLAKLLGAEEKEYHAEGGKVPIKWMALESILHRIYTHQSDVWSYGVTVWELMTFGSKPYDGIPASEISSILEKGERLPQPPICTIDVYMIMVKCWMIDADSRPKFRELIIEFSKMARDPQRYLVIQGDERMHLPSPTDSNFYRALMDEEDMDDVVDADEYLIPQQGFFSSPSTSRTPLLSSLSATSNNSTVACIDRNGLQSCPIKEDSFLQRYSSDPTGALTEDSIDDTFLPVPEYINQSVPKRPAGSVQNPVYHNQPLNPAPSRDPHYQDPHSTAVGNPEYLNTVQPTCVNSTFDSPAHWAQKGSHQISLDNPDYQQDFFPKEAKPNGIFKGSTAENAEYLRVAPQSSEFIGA
Sequence of BTK kinase domain (Q06187 402-655): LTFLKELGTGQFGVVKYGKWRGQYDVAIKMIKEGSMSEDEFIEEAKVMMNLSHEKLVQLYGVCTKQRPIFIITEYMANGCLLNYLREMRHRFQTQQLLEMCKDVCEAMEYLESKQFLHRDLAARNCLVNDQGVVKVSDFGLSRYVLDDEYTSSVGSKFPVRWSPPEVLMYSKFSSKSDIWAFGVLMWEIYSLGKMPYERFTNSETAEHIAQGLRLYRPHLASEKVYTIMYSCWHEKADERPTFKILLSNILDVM
Sequence of BTK (Mus musculus (Mouse), UniProt P35991) (P35991 whole entry): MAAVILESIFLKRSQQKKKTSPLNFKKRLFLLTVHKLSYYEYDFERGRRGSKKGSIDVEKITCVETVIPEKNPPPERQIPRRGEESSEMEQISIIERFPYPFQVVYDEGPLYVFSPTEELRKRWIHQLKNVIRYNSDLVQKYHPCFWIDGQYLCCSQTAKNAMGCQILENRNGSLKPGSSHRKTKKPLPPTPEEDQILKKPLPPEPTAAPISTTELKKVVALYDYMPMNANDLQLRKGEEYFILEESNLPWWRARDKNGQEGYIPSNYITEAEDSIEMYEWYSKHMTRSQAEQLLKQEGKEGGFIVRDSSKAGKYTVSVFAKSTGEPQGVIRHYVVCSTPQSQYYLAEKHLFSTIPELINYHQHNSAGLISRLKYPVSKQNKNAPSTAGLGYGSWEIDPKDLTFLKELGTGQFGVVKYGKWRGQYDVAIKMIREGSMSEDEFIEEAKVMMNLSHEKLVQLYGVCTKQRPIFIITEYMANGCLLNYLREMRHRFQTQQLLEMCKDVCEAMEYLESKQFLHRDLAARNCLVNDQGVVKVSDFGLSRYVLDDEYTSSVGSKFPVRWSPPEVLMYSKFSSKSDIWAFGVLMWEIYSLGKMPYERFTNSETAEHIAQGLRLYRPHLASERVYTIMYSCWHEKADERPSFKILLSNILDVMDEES

C#Cc1ccc(NC(=O)CCl)cc1 [Compound 2c, 2-chloro-N-(4-ethynylphenyl)acetamide]
proteomic reactivity (proteins enriched) (Mino cells [1]): enriching more proteins

CS(=O)(=O)OCC(=O)N1CCC[C@@H](n2nc(-c3ccc(Oc4ccccc4)cc3)c3c(N)ncnc32)C1 [Compound 3b, (R)-2-(3-(4-amino-3-(4-phenoxyphenyl)-1H-pyrazolo[3,4-d]pyrimidin-1-yl)piperidin-1-yl)-2-oxoethyl methanesulfonate]
IC50 (BTK [2]; [9]): 0.0464 µM and 0.046 µM
IC50 (BTK [3]): 6 nM

C#Cc1ccc(NC(=O)COS(=O)(=O)NCc2ccccc2)cc1 [Compound 2a, 2-((4-ethynylphenyl)amino)-2-oxoethyl benzylsulfamate]
proteomic reactivity (proteins enriched) (Mino cells [1]): enriching more proteins

CS(=O)(=O)CC(=O)NCc1ccccc1 [Compound 1i, N-benzyl-2-(methylsulfonyl)acetamide]
covalent bond formation with GSH [4]: did not form a covalent bond with GSH

Nc1ncnc2c1c(-c1ccc(Oc3ccccc3)cc1)nn2[C@@H]1CCCN(C(=O)CS(=O)(=O)c2ccccc2)C1 [Compound 3g, (R)-1-(3-(4-amino-3-(4-phenoxyphenyl)-1H-pyrazolo[3,4-d]pyrimidin-1-yl)piperidin-1-yl)-2-(phenylsulfonyl)ethan-1-one]
covalent labeling of BTK (LC/MS) (BTK kinase domain): failed to react covalently with BTK

Nc1ncnc2c1c(-c1ccc(Oc3ccccc3)cc1)nn2[C@@H]1CCCN(C(=O)COS(=O)(=O)NCc2ccccc2)C1 [Compound 3d, (R)-2-(3-(4-amino-3-(4-phenoxyphenyl)-1H-pyrazolo[3,4-d]pyrimidin-1-yl)piperidin-1-yl)-2-oxoethyl benzylsulfamate]
IC50 (BTK [2]; [9]): 0.0242 µM and 0.024 µM
IC50 (BTK [2]; read-out: IC50 against BTK): ~0.01 µM
fold potency lost against the C481S mutant (BTK C481S mutant): 30-85 fold
IC50 (BTK C481S mutant; [10]): 1.28 µM
C481S/BTK (BTK C481S mutant): 52.8
IC50 (EGFR): 0.533 µM
EGFR/BTK (EGFR): 22.0
number of off-targets (competitive pull-down) (Mino cells [5]): 20

CNS(=O)(=O)OCC(=O)NCc1ccccc1 [Compound 1d, 2-(benzylamino)-2-oxoethyl methylsulfamate]
GSH reactivity relative to chloroacetamide (1a) [4]: an order of magnitude less reactivity

CNS(=O)(=O)OCC(=O)N1CCC[C@@H](n2nc(-c3ccc(Oc4ccccc4)cc3)c3c(N)ncnc32)C1 [Compound 3c, (R)-2-(3-(4-amino-3-(4-phenoxyphenyl)-1H-pyrazolo[3,4-d]pyrimidin-1-yl)piperidin-1-yl)-2-oxoethyl methylsulfamate]
IC50 (BTK [2]; [9]): 0.00864 µM and 0.0086 µM
IC50 (BTK [2]; read-out: IC50 against BTK): ~0.01 µM
IC50 (BTK C481S mutant): 0.74 µM
fold potency lost against the C481S mutant (BTK C481S mutant): 30-85 fold
C481S/BTK (BTK C481S mutant): 85.6
IC50 (EGFR): 0.241 µM
EGFR/BTK (EGFR): 27.9
IC50 (BTK [3]): 3.6 nM
spleen size [6]: visually smaller
BTK engagement in vivo (ibrutinib-alkyne probe labeling of spleen lysate) (BTK [7]): do not show probe labeling
number of off-targets (competitive pull-down) (Mino cells [5]): 6
remained intact after incubation with human liver microsomes [8]: over 30%

CS(=O)(=O)CC(=O)N1CCC[C@@H](n2nc(-c3ccc(Oc4ccccc4)cc3)c3c(N)ncnc32)C1 [Compound 3f, (R)-1-(3-(4-amino-3-(4-phenoxyphenyl)-1H-pyrazolo[3,4-d]pyrimidin-1-yl)piperidin-1-yl)-2-(methylsulfonyl)ethan-1-one]
covalent labeling of BTK (LC/MS) (BTK kinase domain): failed to react covalently with BTK

O=C(COS(=O)(=O)NCc1ccccc1)NCc1ccccc1 [Compound 1e, 2-(benzylamino)-2-oxoethyl benzylsulfamate]
GSH reactivity relative to chloroacetamide (1a) [4]: an order of magnitude less reactivity

Nc1ncnc2c1c(-c1ccc(Oc3ccccc3)cc1)nn2[C@@H]1CCCN(C(=O)COS(=O)(=O)Nc2ccccc2)C1 [Compound 3e, (R)-2-(3-(4-amino-3-(4-phenoxyphenyl)-1H-pyrazolo[3,4-d]pyrimidin-1-yl)piperidin-1-yl)-2-oxoethyl phenylsulfamate]
fold weaker IC50 than Ibrutinib (BTK [2]): 10 fold
IC50 (BTK [2]; [9]): 0.0949 µM and 0.095 µM
IC50 (BTK [2]; read-out: IC50 against BTK): 0.1 µM
IC50 (BTK C481S mutant; [10]): 0.275 µM
C481S/BTK (BTK C481S mutant): 2.9
IC50 (EGFR): 1.96 µM
EGFR/BTK (EGFR): 20.6

C#CCOS(=O)(=O)N1CCC[C@@H](n2nc(-c3ccc(Oc4ccccc4)cc3)c3c(N)ncnc32)C1 [Compound 3j, prop-2-yn-1-yl (R)-3-(4-amino-3-(4-phenoxyphenyl)-1H-pyrazolo[3,4-d]pyrimidin-1-yl)piperidine-1-sulfonate]
reaction with GSH ([4]; same conditions as Ibrutinib): did not undergo any reaction with GSH

O=C(CS(=O)(=O)c1ccccc1)NCc1ccccc1 [Compound 1j, N-benzyl-2-(phenylsulfonyl)acetamide]
covalent bond formation with GSH [4]: did not form a covalent bond with GSH
